Measured values: ChEMBL document CHEMBL5727000, “Carboxamide or sulfonamide substituted thiazoles and related derivatives as modulators for the orphan nuclear receptor ROR[γ]” (2019)

Assays:
[1] = (§1) RORgamma Gal4 Reporter Gene Assay (REN): Cells were incubated for additional 16 h before renilla (REN) luciferase activities were measured sequentially in the same cell extract using a Dual-Light-Luciferase-Assay system (Dyer et al., Anal. Biochem. 2000, 282:158). All experiments were done at least in triplicates.
[2] = as §1, with “(FF):” for “(REN):”, “firefly (FF)” for “renilla (REN)”

| Compound | IC50 [1] [nM] | IC50 [2] [nM] |
| --- | --- | --- |
| CC(C)(C)NS(=O)(=O)c1ccc(-c2oc(C(=O)NC3CCOCC3)nc2CC2CCCCC2)c2ccccc12 | 12.6 | 15.8 |
| C[C@H](NS(=O)(=O)c1ccc(-c2sc(C(=O)N3CC4(C3)CS(=O)(=O)C4)nc2CC2CC2)c2ccccc12)C(F)(F)F | 6.31 | 6.31 |
| CC(C)(C)NS(=O)(=O)c1ccc(-c2oc(C(=O)N[C@H]3C[C@H](C(=O)NS(C)(=O)=O)C3)nc2CC2CCCCC2)c2ccccc12 | 200 | – |
| CC(C)(O)CNC(=O)c1nc(CC2CCCCC2)c(-c2ccc(S(N)(=O)=O)c(Cl)c2Cl)s1 | < 20000 | < 20000 |
| CC(C)(C)NS(=O)(=O)c1ccc(-c2oc(C(=O)NC3CCS(=O)(=O)CC3)nc2CC2CCCCC2)c(Cl)c1Cl | 6.31 | 3.98 |
| CC(C)(O)CNC(=O)c1nc(C(=O)C2CCC(C)(C)CC2)c(-c2ccc(S(=O)(=O)NC(C)(C)C)c3ccccc23)s1 | 31.6 | 25.1 |
| CC(C)(C)NS(=O)(=O)c1ccc(-c2sc(C(=O)NC3CCS(=O)(=O)CC3)nc2-c2cccc(Cl)c2)c2ccccc12 | 6.31 | – |
| CC(C)(C)NS(=O)(=O)c1ccc(-c2sc(C(=O)NC3CCC3)[n+]([O-])c2CC2CCCCC2)c2ccccc12 | 31.6 | 31.6 |
| CC1CCN(C(=O)c2nc(C(=O)N3CC4(CCS(=O)(=O)CC4)C3)oc2-c2ccc(S(=O)(=O)NC(C)(C)C)c3ccccc23)CC1 | 2510 | – |
| CC(C)(C)c1cc(-c2sc(C(=O)NC3CC(OC=O)C3)nc2CC2CCCCC2)nc(C(C)(C)C)n1 (centres undefined) | 126 | 126 |
| CC1CCN(C(=O)c2nc(C(=O)NCC(C)(C)O)sc2-c2ccc(S(=O)(=O)NCC(C)(C)O)c3ccccc23)CC1 | 1580 | – |
| CC(C)(C)NS(=O)(=O)c1ccc(-c2sc(C(=O)NC3CCC3)nc2CC2CCCCC2)c(OC(F)F)c1Cl | 5.01 | 10 |
| CC(C)(C)NS(=O)(=O)c1ccc(-c2sc(C(=O)NC3CCC3)nc2CC2CCCCC2)c(OC(F)(F)F)c1 | 6.31 | 10 |
| CC1CCN(C(=O)c2nc(C(=O)N3CC4(CCOCC4)C3)sc2-c2ccc(S(=O)(=O)NC(C)(C)C)c3ccccc23)CC1 | 63.1 | – |
| CC(C)(C)c1cc(-c2sc(C(=O)NC3CCC3)[n+]([O-])c2CC2CCCCC2)cc(C2(C)CC2)c1 | 25.1 | 31.6 |
| CCC(C)(C)NS(=O)(=O)c1ccc(-c2sc(C(=O)NCc3ncc(S(C)(=O)=O)s3)nc2C(=O)N2CCC(C)CC2)c(Cl)c1C | 20 | – |
| CC(C)(C)c1cc(-c2nc(C(N)=O)oc2CC2CCCCC2)cc(C(C)(C)C)c1 | < 20000 | < 20000 |
| CC(C)(C)NS(=O)(=O)c1ccc(-c2sc(C(=O)N[C@H]3C[C@H](C(=O)O)C3)nc2C2CCCCC2)c2ccccc12 | 10 | – |
| O=CO[C@H]1C[C@H](NC(=O)c2nc(CC3CCCCC3)c(-c3ccc(OC(F)(F)F)c4ccccc34)s2)C1 | 126 | 126 |
| CC1CC(C)CN(C(=O)c2nc(C(=O)NCC(C)(C)O)sc2-c2ccc(S(=O)(=O)NC(C)(C)C)c3ccccc23)C1 (centres undefined) | 126 | – |
| CC1CCN(C(=O)c2nc(C(=O)NCC(C)(C)O)sc2-c2ccc(S(=O)(=O)NCC(F)(F)F)c3ccccc23)CC1 | 39.8 | – |
| CC1CCN(C(=O)c2nc(C(=O)N3CC4(CCS(=O)(=O)CC4)C3)sc2-c2ccc(S(=O)(=O)NC(C)(C)C)c3ccccc23)CC1 | 251 | – |
| CC(C)(C)NS(=O)(=O)c1ccc(-c2sc(C(=O)NC3CCOCC3)nc2CC2CCCCC2)cc1C(F)(F)F | 5.01 | 10 |
| CC(C)(C)NS(=O)(=O)c1ccc(-c2sc(C(=O)NC3CCS(=O)(=O)CC3)nc2C2CCCCC2)c2ccccc12 | 6.31 | – |
| CCC1CCN(C(=O)c2nc(C(=O)NCC(C)(C)O)sc2-c2ccc(S(=O)(=O)NC(C)(C)C)c3ccccc23)CC1 | 31.6 | – |
| CCOC(=O)c1nc(Cc2ccccc2)c(-c2ccc(S(=O)(=O)NC(C)(C)C)c3ccccc23)s1 | 10 | 12.6 |

| Compound | IC50 [1] [nM] | IC50 [2] [nM] |
| --- | --- | --- |
| CC(C)(C)c1cc(-c2sc(C(=O)NC3CC(OC=O)C3)nc2CC2CCCCC2)nc(C2(C)CC2)n1 (centres undefined) | 200 | 158 |
| CC(C)(C)c1cc(-c2sc(S(=O)(=O)NC(=O)OCc3ccccc3)nc2CC2CCCCC2)cc(C2(C)CC2)c1 | < 20000 | < 20000 |
| CC1CCCCN1C(=O)c1nc(C(=O)NCC(C)(C)O)sc1-c1ccc(S(=O)(=O)NC(C)(C)C)c2ccccc12 (centres undefined) | 50.1 | – |
| O=CO[C@H]1C[C@H](NC(=O)c2nc(CC3CCCCC3)c(-c3ccc(OCC(F)(F)F)c4ccccc34)s2)C1 | 631 | 316 |
| CC(C)(C)c1cc(-c2cc(C(N)=O)ccc2CC2CCCCC2)cc(C(C)(C)C)c1 | 501 | – |
| CC(C)(C)NS(=O)(=O)c1ccc(-c2oc(C(=O)NC34CCC(C(=O)O)(CC3)CC4)nc2CC2CCCCC2)c2ccccc12 | 12.6 | – |
| C[C@H](NC(=O)c1cc(-c2sc(C(=O)NCC(C)(C)c3noc(=O)[nH]3)nc2CC2CCCCC2)cc(C2(C)CC2)c1)C(F)(F)F | 5.01 | 5.01 |
| CC(C)(O)CNC(=O)c1nc(CC2CCC2)c(-c2ccc(S(=O)(=O)NC(C)(C)C)c(Cl)c2OC(F)F)s1 | 39.8 | 31.6 |
| CC(C)(C)c1cc(-c2ccc(C(N)=O)cc2CC2CCCCC2)cc(C(C)(C)C)c1 | 631 | – |
| CC(C)(C)c1cc(-c2nc(C(=O)N[C@H]3C[C@H](OC=O)C3)oc2CC2CCCCC2)cc(C2(C)CC2)c1 | 251 | 398 |
| CC(C)(C)NS(=O)(=O)c1cnc(-c2sc(C(=O)N[C@H]3C[C@H](C(=O)O)C3)nc2CC2CCCCC2)nc1C(C)(C)C | 398 | 200 |
| CCCc1nc(C(=O)NCC(C)(C)O)sc1-c1ccc(S(=O)(=O)N[C@@H](C)C(F)(F)F)c2ccccc12 | 12.6 | – |
| COc1ccc(-c2sc(C(=O)N[C@H]3C[C@H](OC=O)C3)nc2CC2CCCCC2)c2ccccc12 | 251 | 251 |
| CC(C)(C)c1cc(-c2nc(C(=O)NC3CCS(=O)(=O)CC3)oc2CC2CCCCC2)cc(C2(C)CC2)c1 | 251 | – |
| CC(C)(CNC(=O)c1nc(CC2CCCCC2)c(-c2cc(C(C)(C)C)cc(C3(C)CC3)c2)o1)C(=O)O | 251 | – |
| O=C(NC1CCS(=O)(=O)CC1)c1nc(CC2CCCCC2)c(-c2ccc(C3(O)CCC3)c3ccccc23)s1 | 631 | 501 |
| CC(C)(O)CN1CCN(C(=O)c2nc(CC3CCCCC3)c(-c3ccc(S(=O)(=O)NC(C)(C)C)c4ccccc34)s2)CC1 | 126 | 158 |
| CC(C)(C)NS(=O)(=O)c1ccc(-c2sc(C(=O)N[C@H]3C[C@H](C(=O)O)C3)nc2Cc2ccccc2)c2ccccc12 | – | 26.5 |
| CC(C)(C)NS(=O)(=O)c1ccc(-c2oc(C(=O)N3CC4(CCS(=O)(=O)CC4)C3)nc2CC2CCCCC2)c2ccccc12 | – | 1260 |
| CC1CCN(C(=O)c2nc(C(=O)NCC(C)(C)O)sc2-c2ccc(S(=O)(=O)N[C@@H](C)C(F)(F)F)c3ccccc23)CC1 | 20 | – |
| CC(C)(O)CNC(=O)c1nc(CC2CCCCC2)c(-c2ccc(S(=O)(=O)NC(C)(C)C)c(Cl)c2Cl)o1 | 31.6 | 39.8 |
| CC(C)(C)NS(=O)(=O)c1ccc(-c2nc(C(=O)NC34CCC(C(=O)O)(CC3)CC4)oc2CC2CCCCC2)c2ccccc12 | 39.8 | – |
| CC(C)(C)NS(=O)(=O)c1ccc(-c2sc(C(=O)NC3CCOCC3)nc2CC2CCCCC2)cc1C(C)(C)C | 12.6 | 15.8 |
| CC(C)(C)c1cc(-c2oc(C(=O)NC3CCOCC3)nc2CC2CCCCC2)cc(C2(C)CC2)c1 | 126 | – |
| CCC(C)(C)NS(=O)(=O)c1ccc(-c2sc(C(=O)NCC(C)(C)O)nc2C(=O)N2CCC(C)CC2)c(Cl)c1C | 3.16 | – |
| CC(=O)NS(=O)(=O)c1nc(-c2cc(C(C)(C)C)cc(C(C)(C)C)c2)c(CC2CCCCC2)s1 | < 20000 | < 20000 |
